According to PMC4138406, “In vitro and in vivo anti-malarial activity of limonoids isolated from the residual seed biomass from Carapa guianensis (andiroba) oil production” (Malaria Journal, 2014):
In brackets after ≈: the same amount, converted by molar mass. Several values for one entry are separate records, joined by “and”; a condition that tells them apart may be missing. Equal entries are not always repeated. Structures can show the parent of a compound that is named as a salt. Where two headings read alike, the source gives them in different places.

Tests used:
[1] = test system: Plasmodium falciparum K1 strain; assay: In vitro anti-plasmodial assay (micro test), growth inhibition of P. falciparum K1; assay type: cell-based; settings: for IC50: Plasmodium falciparum, read-out: IC50 Plasmodium falciparum K1; for Result Plasmodium falciparum K1: activity class from IC50, K1 strain
Description: Briefly, this procedure involved preparing 5 mg/mL stock solutions of each compound in dimethyl sulfoxide (DMSO). The stock solutions were diluted to provide test solutions having concentrations in the range 0.13-100 μg/mL. Test solutions were transferred to 96-well test plates containing parasitized red blood cells with initial 2% haematocrit and 1% parasitaemia. Each sample was evaluated in duplicate and the test plate was incubated for 48 h at 37°C. After incubation, quantification of parasites was achieved by optical microscopy on blood smears from each well [27].

MRC-5 human fibroblasts = assay: Cytotoxicity assay (AlamarBlue) on MRC-5 human fibroblasts; assay type: cell-based
Description: The MRC-5 cell line of human fibroblasts was grown in Dulbecco’s Modified Eagle’s Medium (DMEM) supplemented with 10% fetal bovine serum, 2 mM glutamine, 100 μg/mL streptomycin and 100 U/mL penicillin, and incubated at 37°C with a 5% atmosphere of CO2. For assays, the cells were plated in 96-well plates (2.5 × 10^4 cells/well) and the AlamarBlue™ assay was performed using a previously described procedure. After incubation for 24 h, compounds 1-5 were individually dissolved in DMSO and the resulting solutions were diluted in culture medium. The resulting dilute solutions of each sample were added to wells at final (well) concentrations of 1.56-100 μg/mL. Control groups had final well concentrations of 0.1% DMSO. The plates were further incubated for 48 h. 3 h before the end of the incubation period, AlamarBlue™ (10 μL) was added to each well. The fluorescent signal was monitored with a multiplate reader using 530-560 nm excitation and 590 nm emission wavelengths.

[2] = test system: Plasmodium berghei NK65 strain; assay: Peters 4-day suppressive test in infected BALB/c mice; assay type: in vivo, Plasmodium berghei in BALB/c mice
Description: Adult BALB/c mice (22 ± 3 g weight) were used for the in vivo anti-malarial tests and received water and food ad libitum. In vivo tests were performed using ‘Guidelines for Ethical Conduct in The Care and Use of Animals of the National Institute for Amazon Research (INPA)’.
Limonoids 3 and 4 were assayed for in vivo anti-malarial activity in the Peters 4-day suppressive test against the Plasmodium berghei NK65 strain in BALB/c female mice, each inoculated with 1 × 10^5 parasitized red blood cells. The mice were randomly divided into groups of five individuals and individual […] evaluation of parasitaemia versus controls (negative control groups were treated with 2% DMSO vehicle and positive control groups with chloroquine) on days 5 and 7 following an established procedure. Mortality was monitored in all groups for four weeks after inoculation. Two independent in vivo experiments were performed.

[3] = test system: W2 strain of P. falciparum; settings: cited from earlier work
[4] = test system: K1 and FCR-3 strains of P. falciparum; settings: earlier studies; read-out: IC50 against the K1 and FCR-3 strains of P. falciparum; cited from earlier work
P. berghei strain ANKA = settings: cited from earlier work
[5] = test system: FCR-3 strain of P. falciparum; parameters: method as in doi:10.1016/j.tet.2011.12.076; settings: read-out: IC50 against the FCR-3 strain of P. falciparum; cited from earlier work
[6] = test system: W2, D6 and FCR-3 strains of P. falciparum; parameters: method as in doi:10.1016/j.tet.2011.12.076, PMID 9134742, doi:10.1111/j.1744-7348.2003.tb00279.x; settings: range over strains; read-out: IC50 against W2, D6 and FCR-3 strains of P. falciparum; cited from earlier work
P. falciparum D6 = test system: P. falciparum D6; parameters: method as in PMID 9134742; settings: cited from earlier work
[7] = parameters: method as in PMID 12570769; settings: cited from earlier work
Plasmodium vinckei = test system: Plasmodium vinckei; parameters: method as in PMID 23433124; settings: cited from earlier work
[8] = 50 mg/kg/day, vs untreated controls
[9] = 100 mg/kg/day, vs untreated controls
[10] = MRC5, MRC-5, 48 h, read-out: IC50 Human fibroblasts MRC-5

CC1(C)C(=O)C=C[C@@]2(C)C1CC(=O)[C@]1(C)C2CC[C@@]2(C)[C@H](c3ccoc3)OC(=O)[C@H]3O[C@]321 (stereo partly drawn) [compound 4, 7-deacetoxy-7-oxogedunin]
IC50 ([1]; K1, 48 h): 20.7 µM
Result Plasmodium falciparum K1 [1]: I (IC50 > 20 μM = inactive (I))
IC50 (MRC-5 human fibroblasts; MRC5, 48 h, read-out: IC50 Human fibroblasts MRC-5): 108 µM
IC50 (MRC-5 human fibroblasts; MRC5, 48 h, read-out: IC50 MRC-5 cells): 47.3 mg/L
Average survival time ± SD Oral ([2]; 50 mg/kg/day): 20 ± 2 days
% Parasite inhibition Oral 5th day [2, 8]: 19.3%
% Parasite inhibition Oral 7th day ([2]; 50 mg/kg/day): 0%
Average survival time ± SD Subcutaneous ([2]; 50 mg/kg/day): 21 ± 4 days
% Parasite inhibition Subcutaneous 5th day ([2]; 50 mg/kg/day): 29.2%
% Parasite inhibition Subcutaneous 7th day ([2]; 50 mg/kg/day): 0%
Average survival time ± SD Oral ([2]; 100 mg/kg/day): 21 ± 3 days
% Parasite inhibition Oral 5th day [2, 9]: 40% and 40.3%
% Parasite inhibition Oral 7th day ([2]; 100 mg/kg/day): 28.9%
Average survival time ± SD Subcutaneous ([2]; 100 mg/kg/day): 22 ± 2 days
% Parasite inhibition Subcutaneous 5th day ([2]; 100 mg/kg/day): 38.6%
% Parasite inhibition Subcutaneous 7th day ([2]; 100 mg/kg/day): 21.7%
IC50 ([3]; read-out: IC50 against the W2 strain of P. falciparum): > 22.8 µM
IC50 [4]: 2.5 to 4.1 µM

CO[C@@H]1CC2C(C)(C)C(=O)C=C[C@]2(C)C2CC[C@@]3(C)[C@H](c4ccoc4)OC(=O)[C@H]4O[C@]43[C@@]21C (stereo partly drawn) [compound 10, 7-deacetyl-7-O-methylgedunin]
inhibition of parasitaemia of P. berghei ANKA in mice (P. berghei strain ANKA; oral, 50 mg/kg/day): 68%

CC(=O)O[C@@H]1C2C(C)(C)C(=O)C=C[C@]2(C)C2CC[C@@]3(C)[C@H](c4ccoc4)OC(=O)[C@H]4O[C@]43[C@]2(C)[C@@H]1O (stereo partly drawn) [compound 7, andirolide H]
IC50 [5]: 4 µM

C=C1[C@@H]([C@@]2(C)C=CC(=O)C(C)(C)[C@@H]2CC(=O)OC)CC[C@@]2(C)[C@H](c3ccoc3)OC(=O)[C@H]3O[C@]132 [compound 2, andirobin]
IC50 ([1]; K1 strain, 48 h incubation): 15.3 µM
Result Plasmodium falciparum K1 [1]: MA (5 < IC50 ≤ 20 μM = moderately active (MA))
IC50 (MRC-5 human fibroblasts; [10]): > 203 µM

C=C[C@H]1C[N@@]2CC[C@H]1C[C@H]2[C@H](O)c1ccnc2ccc(OC)cc12 [quinine sulfate, reference compound]
IC50 ([1]; K1 strain, 48 h incubation): 0.3 µM
Result Plasmodium falciparum K1 [1]: A (0.1 < IC50 ≤ 5 μM = active (A))

CC(=O)O[C@@H]1C[C@H]2C(C)(C)C(=O)C=C[C@]2(C)[C@H]2CC[C@@]3(C)[C@H](c4ccoc4)OC(=O)[C@H]4O[C@]43[C@@]21C [compound 6, Gedunin]
IC50 [6]: 0.4 to 2.5 µM
suppression of P. berghei in mice (P. berghei strain ANKA; oral doses of 25 or 100 mg/kg/day): did not suppress

CC(=O)O[C@@H]1C2C(C)(C)C(=O)C=C[C@]2(C)C2CC[C@@]3(C)[C@H](c4ccoc4)OC(=O)[C@H]4O[C@]43[C@]2(C)[C@@H]1OC(C)=O (stereo partly drawn) [compound 3, 6α-acetoxygedunin]
IC50 ([1]; K1 strain, 48 h incubation): 7 µM
Result Plasmodium falciparum K1 [1]: MA (5 < IC50 ≤ 20 μM = moderately active (MA))
IC50 (MRC-5 human fibroblasts; [10]): > 185 µM
Average survival time ± SD Oral ([2]; 50 mg/kg/day): 20 ± 3 days
% Parasite inhibition Oral 5th day [2, 8]: 40% and 40.2%
% Parasite inhibition Oral 7th day ([2]; 50 mg/kg/day): 34.7%
Average survival time ± SD Subcutaneous ([2]; 50 mg/kg/day): 21 ± 2 days
% Parasite inhibition Subcutaneous 5th day ([2]; 50 mg/kg/day): 34.4%
% Parasite inhibition Subcutaneous 7th day ([2]; 50 mg/kg/day): 16.8%
Average survival time ± SD Oral ([2]; 100 mg/kg/day): 24 ± 3 days
% Parasite inhibition Oral 5th day [2, 9]: 66% and 65.7%
% Parasite inhibition Oral 7th day ([2]; 100 mg/kg/day): 46.3%
Average survival time ± SD Subcutaneous ([2]; 100 mg/kg/day): 22 ± 4 days
% Parasite inhibition Subcutaneous 5th day ([2]; 100 mg/kg/day): 44.2%
% Parasite inhibition Subcutaneous 7th day ([2]; 100 mg/kg/day): 30.4%
IC50 [5]: 2.8 µM

CC(=O)O[C@@H]1C2C(C)(C)C(=O)C=C[C@]2(C)C2CC[C@@]3(C)[C@H](c4ccoc4)C(=O)[C@H]4O[C@]43[C@]2(C)[C@@H]1OC(C)=O (stereo partly drawn) [compound 1, 6α-acetoxyepoxyazadiradione]
IC50 ([1]; K1 strain, 48 h incubation): 15.4 µM
Result Plasmodium falciparum K1 [1]: MA (5 < IC50 ≤ 20 μM = moderately active (MA))
IC50 (MRC-5 human fibroblasts; [10]): > 191 µM

CC1(C)C(=O)C=C[C@@]2(C)C1C[C@@H](O)[C@]1(C)C2CC[C@@]2(C)[C@H](c3ccoc3)OC(=O)[C@H]3O[C@]321 (stereo partly drawn) [compound 9, 7-deacetylgedunin]
IC50 against W2 [3]: 1.3 mg/L (≈ 2.95 µM)
IC50 against D6 (P. falciparum D6; D6): 2.6 mg/L (≈ 5.9 µM)
times less in vitro activity than gedunin (P. falciparum D6; D6 and W2, compared to gedunin): about 65 times
stability under physiologic conditions found in mice ([7]; physiologic conditions): unstable
stability under simulated gastric (low pH) conditions ([7]; simulated gastric (low pH)): low stability

C=C[C@H]1C[N@@]2CC[C@H]1C[C@H]2[C@H](O)c1ccnc2ccc(OC)cc12 [quinine]
median effective dose (ED50) (P. berghei strain ANKA; mice infected with P. berghei strain ANKA): 34 mg/kg/day

C=C1[C@@H]2CC[C@@]3(C)[C@H](c4ccoc4)OC(=O)C[C@]13O[C@H]1CC(=O)C(C)(C)[C@H](CC(=O)OC)[C@]12C [methyl angolensate]
IC50 [5]: 12 to 15 µM

C[C@H]1[C@H](OC(=O)CCC(=O)[O-])O[C@@H]2O[C@@]3(C)CC[C@H]4[C@H](C)CC[C@@H]1[C@@]24OO3.[Na+] [sodium artesunate]
doses at which infected mice exhibit recrudescence (Plasmodium vinckei): < 80 mg/kg/day

CC(=O)O[C@@H]1[C@H](O)C2C(C)(C)C(=O)C=C[C@]2(C)C2CC[C@@]3(C)[C@H](c4ccoc4)OC(=O)[C@H]4O[C@]43[C@@]21C (stereo partly drawn) [compound 8, 6α-hydroxygedunin]
IC50 [5]: 90 µM

CC1(C)C(=O)C=C[C@@]2(C)C1[C@@H](O)[C@@H](O)[C@]1(C)C2CC[C@@]2(C)[C@H](c3ccoc3)OC(=O)[C@H]3O[C@]321 (stereo partly drawn) [compound 5, 6α-hydroxydeacetylgedunin]
IC50 ([1]; K1 strain, 48 h incubation): 5 µM
Result Plasmodium falciparum K1 [1]: A (0.1 < IC50 ≤ 5 μM = active (A))
IC50 (MRC-5 human fibroblasts; [10]): > 219 µM

CCN(CC)CCCC(C)Nc1ccnc2cc(Cl)ccc12 (stereo not drawn) [chloroquine diphosphate, reference compound]
IC50 ([1]; K1, 48 h): 0.33 µM
Result Plasmodium falciparum K1 [1]: A (0.1 < IC50 ≤ 5 μM = active (A))
Average survival time ± SD Oral ([2]; 5 mg/kg/day): >40 days
% Parasite inhibition Oral 5th day ([2]; 5 mg/kg/day): 100%
% Parasite inhibition Oral 7th day ([2]; 5 mg/kg/day): 98%
Average survival time ± SD Subcutaneous ([2]; 5 mg/kg/day): >40 days
% Parasite inhibition Subcutaneous 5th day ([2]; 5 mg/kg/day): 99%
% Parasite inhibition Subcutaneous 7th day ([2]; 5 mg/kg/day): 99%
